Assay: gradient 5% acetonitrile 3 min, to 50% in 2 min, to 85% in 15 min, held 3 min, 100 µL/min
Conditions: column: Zorbax Extend-C18 2.1 x 50 mm; eluents: water / acetonitrile, 0.1% formic acid
In short: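 Data were gathered over 3 months by HPLC coupled to a quadrupole time-of-flight mass spectrometer, operated in positive and negative ionization mode. Mixtures of ~100 pure standards ran on a Zorbax Extend-C18 column (2.1 × 50 mm, 1.8 μm) at 100 μL/min, with water and acetonitrile each containing 0.1% formic acid and dead and dwell volumes of 40 μL and 900 μL. Retention time was read from adduct peaks picked by computer and checked manually.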

RP-LC retention time [s] | SMILES
665 | O=C(NCc1ccccc1Cl)c1cn2c(n1)COCC2
730 | COc1cc(OC)c(NC(=O)C2=C(C)C(=O)OC23CCN(C(C)=O)CC3)cc1Cl
1180 | Cc1ccc(-n2ncc3c(=O)n(Cc4nc(-c5cccc(C(F)(F)F)c5)no4)cnc32)cc1
968 | CCc1nc2cc(-c3noc(-c4ccco4)n3)ccc2o1
651 | Cc1cc(N2CCN(C(=O)Nc3ccccc3C)CC2)nc(N2CCCC2)n1
670 | Cc1ccc(-c2noc(Cn3ccnc3C)n2)cc1C
640 | CCn1c(=O)c(N2CCC(C(=O)NCCCN3CCCC(C)C3)CC2)nc2cccnc21 (stereo not drawn)
725 | O=C(NCc1[nH]nc2ccccc12)c1ccc(Br)o1
955 | CC(C(=O)Nc1nc(-c2ccccc2)cs1)N1C(=O)C2C3C=CC(C3)C2C1=O (stereo not drawn)
1180 | Cc1cc(C(=O)Nc2nc(-c3ccccc3)c(-c3ccccc3)s2)no1
806 | CCN1C(=O)c2cccnc2Sc2cc(NC(=O)c3ccc(OC)cc3)ccc21
662 | CCCN1CCN(C(=O)CSc2nccnc2Sc2ccccc2)CC1
639 | Cc1ccc(-c2nnc(N3CCC(C(=O)N4CCN(CC(C)C)CC4)CC3)o2)cc1
929 | COc1ccc(C(C)NC(=O)c2sc3ncccc3c2-n2cccc2)cc1OC (stereo not drawn)
962 | COc1ccc(S(=O)(=O)N2CCCC(C(=O)NC3CCCCC3)C2)cc1C (stereo not drawn)
760 | COCc1c(C(=O)O)nnn1-c1cccc(C(F)(F)F)c1
829 | O=C(Cc1c[nH]c2ccccc12)N1CCC(NS(=O)(=O)c2ccc(Cl)cc2)CC1

SMILES | RP-LC retention time [s]
CCc1ccc(C(=O)N2CCC3(C2)C(=O)N(C)c2ccc(OC)cc23)cc1 (stereo not drawn) | 840
